# Measured values from US20220184071A1, “GEPOTIDACIN FOR USE IN THE TREATMENT OF BACTERIAL URINARY TRACT INFECTIONS” (GlaxoSmithKline Intellectual Property Development Limited, priority 2019, published 2022).
# Like-named read-outs stand apart in the source and are kept apart here.
# Tests used:
# E. coli [1] = assay: Phase IIa baseline uropathogen susceptibility testing (CLSI broth microdilution); assay type: cell-based, Escherichia coli; details: Escherichia coli, read-out: GEP MIC
# Method: (§1) This phase IIa single center study evaluated the safety, tolerability, pharmacokinetics, and efficacy of oral gepotidacin 1500 mg BID for 5 days in female subjects with acute cystitis. Clean catch mid-stream urine specimens were obtained for quantitative culture by standard methods. Urine samples were taken from all participants pre-treatment (baseline) and at all post-baseline visits. All urine samples were sent to a central laboratory (PPD Global Clinical Laboratories, Highland Heights, Ky., USA) for Gram stain, quantitative culture, pathogen identification and susceptibility testing. See FIG. 1 for participant disposition and study outline.
# Susceptibility testing by CLSI broth microdilution and gradient diffusion (fosfomycin only) was conducted (CLSI, 2015, Methods for dilution antimicrobial susceptibility tests for bacteria that grow aerobically; approved standard-tenth edition; and CLSI, 2018. Performance Standards for Antimicrobial Susceptibility Testing; Twenty-seventh Informational Supplement M100-S28). Inclusion in the microbiological intent-to-treat population (micro-ITT), required growth of a qualifying baseline uropathogen (≥10^5 CFU/mL). See FIG. 2 for the baseline algorithm.
# E. coli [2] = assay: MIC by CLSI agar dilution, Example 1 Method 2; assay type: cell-based, Escherichia coli
# Method: Antimicrobial activity was determined in a second study by […] using the CLSI recommended procedure in serial two-fold dilutions and the minimum inhibitory concentration (MIC) was determined as the lowest concentration of the compound that inhibited visible growth.
# MICs were determined according to CLSI agar dilution guidelines.
# E. coli ALL [3] = assay: Neutropenic mouse kidney infection (pyelonephritis/UTI) model PK/PD; assay type: in vivo; details: Strain ALL
# Method: (§2) PK and PD studies using gepotidacin were conducted in murine (male CD-1 mice) thigh and kidney infections. The administered doses ranged from 1 to 200 mg/kg SC every 6 hours starting 1h post infection. Infected tissues were evaluated for bacterial burden at 24 h post infection (baseline controls at 1 h post infection).
# (§3) Efficacy was determined against E. coli ALL, 997577, ATCC25922, IR5 and NCTC13441 (MICs of 1 to 4 μg/mL) in thigh-infected neutropenic (I−) mice and against E. coli ALL in kidney-infected immunocompetent (I+) and I− mice. The PopPK model was used to determine GEP exposures associated with efficacy. PK-PD analyses were conducted using Phoenix WinNonLin 6.3 (Pharsight). The change in login colony forming units (CFU) from baseline were correlated with free drug (f) AUC:MIC using an inhibitory model from the Phoenix library, and model parameter values for each isolate were used to calculate the plasma fAUC:MIC associated with stasis, 1- or 2-login reductions in CFU.
# (§4) PD studies were conducted using thigh and/or kidney infection models in neutropenic or competent mice (N=5/group). Mice were infected with a bacterial suspension in log phase: 100 μL in the left thigh muscle or 50 μL in each of both kidneys (100 μl total). Final inocula across all isolates were 6.0 to 7.0 login CFU/mouse. Dose-ranging studies were conducted with 5 isolates (see Table 1). Starting 1 hr after infection, GEP was given SC (0.2 mL/mouse) at discrete doses of 1-200 mg/kg every 6 hours (q6) for a 24-hour period (4 doses in total). Mice were euthanized 24 hr after start of therapy (6 hr after the last dose), and infected thighs or kidneys were processed to determine viable bacterial counts (CFU). Baseline CFU were obtained from untreated mice at 1 hr post infection and growth control CFU from saline-treated mice at 24 hr.
# NCA analyses were conducted with the simulated data. […]
# E. coli ALL [4] = assay: Immunocompetent mouse kidney infection (pyelonephritis/UTI) model PK/PD; assay type: in vivo
# Method: as §2, §3, §4
# NCA analyses were conducted with the simulated data.
# PK-PD analysis was conducted using Phoenix WinNonLin 6.3 (Pharsight): • Log10 colony forming units (CFU) from each group were correlated with PK-PD parameters using several inhibitory models from the Phoenix library. • Model parameter values for each isolate were used to calculate the PK-PD parameter value associated with stasis, 1-log or 2-log reductions from baseline 1 h controls.
# [5] = Phase IIa clinical efficacy (ITT population); assay type: in vivo, human
# Method: as §1
# Serial blood and urine PK sampling were performed for the first dose of study treatment on Day 1 and for the time-matched dose on Day 4. Participants took all doses of gepotidacin with food and remained in the clinic to complete a total of 10 doses. Participants were instructed to return for the TOC (Day 10 to 13) and Follow-up (Day 28±3) Visits.
# The mean total clinical symptom score in the ITT Population at Baseline was 7.9 (range: 4 to 12) for 4 categories of acute cystitis symptoms consisting of dysuria, frequency, urgency, and lower abdominal or suprapubic pain (score range for each category was 0 to 3). Of the 22 participants enrolled in this Phase IIa study, 19 (86%) and 18 participants (82%) achieved a clinical response of clinical success at the TOC and Follow-up Visits, respectively. […] Lower abdominal or suprapubic pain at Baseline was the most variable symptom category with half of the participants reporting low scores of 0 (27%) or 1 (23%) and the other half of participants reporting high scores of 2 (41%) or 3 (9%). For the other symptom categories, the majority of participants scored a 2.
# [6] = system: Proteus hauseri and Proteus peneri; assay: MIC by CLSI agar dilution, Example 1 Method 2; assay type: cell-based; details: at least one strain of every organism listed
# Method: Antimicrobial activity was determined in a second study by […] using the CLSI recommended procedure in serial two-fold dilutions and the minimum inhibitory concentration (MIC) was determined as the lowest concentration of the compound that inhibited visible growth. Amikacin, ceftazidime, colistin, fosfomycin, levofloxacin, meropenem, nitrofurantoin and trimethoprim-sulfamethoxazole were included as comparators. MICs for and comparators were determined by agar dilution according CLSI methods. In addition, gepotidacin and all of the aforementioned comparators identified in this method were evaluated against gram-negative aerobic organisms selected from Proteus hauseri and Proteus […]. Gepotidacin was tested in at least one exemplified salt.
# Morganella morganii = assay: MIC, Example 5 Method 1; assay type: cell-based; details: at least one isolate tested
smiles,measurement,setting,value
"O=c1ccc2ncc(=O)n3c2n1C[C@H]3CN1CCC(NCc2cc3c(cn2)OCCC3)CC1 [gepotidacin, (2R)-2-({4-[(3,4-dihydro-2H-pyrano[2,3-c]pyridin-6-ylmethyl)amino]-1-piperidinyl}methyl)-1,2-dihydro-3H,8H-2a,5,8a-triazaacenaphthylene-3,8-dione]",MIC,E. coli [1]; Participant 2,2 µg/mL
same,MIC,E. coli [1]; Participant 3,0.5 µg/mL
same,MIC,E. coli [1]; Participant 4,2 µg/mL
same,MIC,"E. coli [1]; Participant 5, MDR and fluoroquinolone-resistant",1 µg/mL
same,MIC,"E. coli [1]; Participant 6, MDR",2 µg/mL
same,MICs ranged,E. coli [2]; 254 isolates,≤0.06 to 64 mg/L
same,% of the tested isolates inhibited at ≤8 mg/L,"E. coli [2]; 254 isolates, enriched for drug resistance",96.1%
same,MIC50,"E. coli [2]; Escherichia coli, n = 254",2 µg/mL
same,MIC90,"E. coli [2]; Escherichia coli, n = 254",8 µg/mL
same,% of isolates inhibited at ≤8 mg/L,E. coli [2]; KPC producing E. coli,94.6%
same,% of isolates inhibited at ≤8 mg/L,E. coli [2]; NDM producing E. coli,100%
same,% of isolates inhibited at ≤8 mg/L,E. coli [2]; OXA-48-like producing E. coli,92.1%
same,Effect of levofloxacin non-susceptibility or QRDR substitutions in GyrA and ParC on activity,E. coli [2]; QRDR data for 188 of 254 isolates,unaffected
same,Number of Isolates at Gepotidacin MIC 0.5 mg/L,E. coli [2]; n = 254,22
same,Number of Isolates at Gepotidacin MIC 1 mg/L,E. coli [2]; n = 254,56
same,Number of Isolates at Gepotidacin MIC 2 mg/L,E. coli [2]; n = 254,92
same,Number of Isolates at Gepotidacin MIC 4 mg/L,E. coli [2]; n = 254,37
same,Number of Isolates at Gepotidacin MIC 8 mg/L,E. coli [2]; n = 254,33
same,Number of Isolates at Gepotidacin MIC ≤0.25 mg/L,E. coli [2]; n = 254,4
same,Number of Isolates at Gepotidacin MIC ≥16 mg/L,E. coli [2]; n = 254,10
same,Daily fAUC/MIC for 1-log Drop,E. coli ALL [3],8.7
same,Daily fAUC/MIC for 2-log Drop,E. coli ALL [3],15.6
same,Daily fAUC/MIC for Stasis,E. coli ALL [3],4.3
same,PK-PD target (fAUC/MIC) in immunocompetent vs neutropenic mice,E. coli ALL [4]; I+ (non-neutropenic) mice,reduced by approx. half
same,Daily fAUC/MIC for 1-log Drop,"E. coli ALL [4]; Strain ALL, Competent UTI",3.3
same,Daily fAUC/MIC for 2-log Drop,"E. coli ALL [4]; Strain ALL, Competent UTI",8.1
same,Daily fAUC/MIC for Stasis,"E. coli ALL [4]; Strain ALL, Competent UTI",0.7
same,participants with clinical response of clinical success,"[5]; TOC Visit, 22 participants",19 (86%)
same,participants with symptom resolution,[5]; at Follow-up,20 participants
same,participants with symptom resolution (clinical signs and symptom score of 0),[5]; at TOC,19 participants
same,time to significant improvement of clinical symptoms (all subjects),"[5]; dysuria, frequency, urgency, lower abdominal pain",24 to 48 h
same,MIC,[6],≤ 8 µg/mL
same,MIC,Morganella morganii,4 µg/mL
